According to PubChem BioAssay AID1963858 (Molecular Pharmacology Branch, DTP, NCI, 2024):
pIC50: −log10 of the molar value.

System: HOP-62 multicell spheroids with HUVEC/MSC, viability
Test: Anticancer human tumor HOP-62 cell line growth inhibition [KRAS2];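 note: viability read after a week of compound exposure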;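 for viability, T/C: 100% = DMSO vehicle-treated spheroids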
Conditions: for pIC50: curve of first compound; for viability, T/C: stronger effect = lower value
Description: Multicellular complex tumor spheroid response to RAS pathway inhibitors in combination with a targeted agents in patient-derived cell lines with oncogenic KRAS variants from multiple cancer types
A high-throughput screen of multi-cell type tumor spheroids was designed to identify active combinations of targeted small molecules and KRAS pathway inhibitors. Complex spheroids include a stromal component modeled by human endothelial cells (HUVEC) and fibroblasts modeled by human mesenchymal stem cells (MSCs). The concentration ranges selected for each drug and investigational agent were based upon clinically achievable concentrations if the clinical Cmax of the agent was known.
Compounds. The drugs and investigational agents: BI-3406 (NSC825286), BAY-293 (NSC824723), batoprotafib (TNO155; NSC825523), sotorasib (AMG 510; NSC818433), MRTX1257 (NSC819558), elimusertib (BAY 1895344; NSC800525), molibresib (GSK525762; NSC774829), temuterkib (LY3214996; NSC803410), venetoclax (NSC766270), alisertib (NSC759677), olaparib (NSC753686), talazoparib (NSC767125), erdafitinib (NSC781556), ipatasertib (NSC767898), cabozantinib (NSC761068), nintedanib (NSC756659), abemaciclib (NSC768073), docetaxel (NSC628503), trametinib (NSC758246), and sapanisertib (NSC764658) were obtained from the National Cancer Institute (NCI) Developmental Therapeutics Program Chemical Repository. The FDA-approved anticancer drug set is available from the Developmental Therapeutics Program. […] The stock solutions were prepared in dimethyl sulfoxide (DMSO, Sigma-Aldrich, St. Louis, MO, cat. D2650) at 800-fold the tested concentration and stored at -70 degrees C prior to their use. All drugs and investigational agents were tested over a range starting from a high concentration at or near the clinical Cmax and decreasing in half-log increments. If the clinical Cmax for an agent had not been determined, the highest concentration tested was 10 microM.
Cell Culture. All cells were maintained in an incubator at 37 degrees C and 5% CO2 with 95% humidity. The PDC lines were cultured according to standard operating procedures established by the NCI PDMR (https://pdmr.cancer.gov/sops/default.htm). Briefly, all PDCs were thawed and cultured in Matrigel-coated flasks prepared with a working solution of 1X Ham's F-12 nutrient mix, without supplementation (Invitrogen, Waltham, MA, cat. 11765054), 100 U/mL penicillin-streptomycin (Invitrogen, cat. 15140122), and 2.5% Matrigel (Corning Inc., Corning, NY, cat. 354248) for the first three passages. All PDCs were cultured in complete DMEM/F-12 media containing advanced DMEM/F-12 (Invitrogen, cat. 12634028), 4.9% defined fetal bovine serum, heat inactivated (HyClone Laboratories Inc., Logan, UT, cat. SH30070.03HI), 389 ng/mL hydrocortisone (Sigma-Aldrich, cat. H4001), 9.7 ng/mL human EGF recombinant protein (Invitrogen, cat. PHG0313), 23.4 microg/mL adenine (Sigma-Aldrich, cat. A2786), 97.3 U/mL penicillin-streptomycin (Invitrogen, cat. 15140122), 1.9 mM L-glutamine (Invitrogen, cat. 25030081), and 9.7 microM Y-27632 dihydrochloride (Tocris Bioscience, Bristol, United Kingdom, cat. 1254). The PDCs were cultured in complete DMEM/F12 media without 9.7 microM Y-27632 dihydrochloride for at least two passages prior to the screen. The established cell line HOP-62 was cultured in RPMI 1640 medium, HEPES (Invitrogen, cat. 22400105) with 10% defined fetal bovine serum (HyClone Laboratories Inc., cat. SH30070.03) and 2 mM L-glutamine (Invitrogen, cat. 25030081). The pooled donor HUVEC were cultured in endothelial cell growth medium 2 (PromoCell, Heidelberg, Germany, cat. C-22011) and the hMSC were cultured in mesenchymal stem cell growth medium 2 (PromoCell, cat. C-28009). For all experiments, HUVEC and hMSC were used at passages </=5, while the malignant cell lines were used at passages </=15. […]

[1] = second compound 0.1 µM, first compound 0.01 µM
[2] = second compound 0.1 µM, first compound 0.0316 µM
[3] = second compound 0.316 µM, first compound 0.01 µM
[4] = second compound 0.316 µM, first compound 0.0316 µM
[5] = second compound 1 µM, first compound 0.01 µM
[6] = second compound 1 µM, first compound 0.0316 µM
[7] = second compound 3.16 µM, first compound 0.01 µM
[8] = second compound 3.16 µM, first compound 0.0316 µM
[9] = second compound 10 µM, first compound 0.01 µM
[10] = second compound 10 µM, first compound 0.0316 µM

## CC(=O)Nc1cccc(-n2c(=O)n(C3CC3)c(=O)c3c(Nc4ccc(I)cc4F)n(C)c(=O)c(C)c32)c1 + COc1cc2nc(C)nc(NC(C)c3cc(N)cc(C(F)(F)F)c3)c2cc1OC1CCOC1
Second compound 0.1 µM
  pIC50: 8.60
Second compound 0.316 µM
  pIC50: 8.52
Second compound 1 µM
  pIC50: 8.70
Second compound 3.16 µM
  pIC50: 9.31
Second compound 10 µM
  pIC50: > 10.00
Second compound 0.1 µM, first compound 0.0001 µM
  viability, T/C: 111%
Second compound 0.1 µM, first compound 0.000316 µM
  viability, T/C: 79%
Second compound 0.1 µM, first compound 0.001 µM
  viability, T/C: 77.8%
Second compound 0.1 µM, first compound 0.00316 µM
  viability, T/C: 42.5%
[1]
  viability, T/C: 25.5%
[2]
  viability, T/C: 23.8%
Second compound 0.316 µM, first compound 0.0001 µM
  viability, T/C: 85.2%
Second compound 0.316 µM, first compound 0.000316 µM
  viability, T/C: 91.4%
Second compound 0.316 µM, first compound 0.001 µM
  viability, T/C: 79.9%
Second compound 0.316 µM, first compound 0.00316 µM
  viability, T/C: 49.2%
[3]
  viability, T/C: 24.9%
[4]
  viability, T/C: 24.5%
Second compound 1 µM, first compound 0.0001 µM
  viability, T/C: 84.1%
Second compound 1 µM, first compound 0.000316 µM
  viability, T/C: 75.8%
Second compound 1 µM, first compound 0.001 µM
  viability, T/C: 75.5%
Second compound 1 µM, first compound 0.00316 µM
  viability, T/C: 33.6%
[5]
  viability, T/C: 24.9%
[6]
  viability, T/C: 25.2%
Second compound 3.16 µM, first compound 0.0001 µM
  viability, T/C: 58.1%
Second compound 3.16 µM, first compound 0.000316 µM
  viability, T/C: 50.5%
Second compound 3.16 µM, first compound 0.001 µM
  viability, T/C: 45.8%
Second compound 3.16 µM, first compound 0.00316 µM
  viability, T/C: 29.2%
[7]
  viability, T/C: 21.9%
[8]
  viability, T/C: 22.7%
Second compound 10 µM, first compound 0.0001 µM
  viability, T/C: 39.6%
Second compound 10 µM, first compound 0.000316 µM
  viability, T/C: 33.7%
Second compound 10 µM, first compound 0.001 µM
  viability, T/C: 31.4%
Second compound 10 µM, first compound 0.00316 µM
  viability, T/C: 27.8%
[9]
  viability, T/C: 25.3%
[10]
  viability, T/C: 22.1%

## CC1COCCN1c1cc(-c2ccnn2C)c2ccnc(-c3ccn[nH]3)c2n1 (stereo not given) + CC1OCC2(CCN(c3cnc(Sc4ccnc(N)c4Cl)c(N)n3)CC2)C1N
Second compound 0.1 µM
  pIC50: 7.40
Second compound 0.316 µM
  pIC50: 7.45
Second compound 1 µM
  pIC50: 7.66
Second compound 3.16 µM
  pIC50: 7.84
Second compound 10 µM
  pIC50: > 8.00
[1]
  viability, T/C: 94.7%
[2]
  viability, T/C: 56.7%
Second compound 0.1 µM, first compound 0.1 µM
  viability, T/C: 23%
Second compound 0.1 µM, first compound 0.316 µM
  viability, T/C: 12.7%
Second compound 0.1 µM, first compound 1 µM
  viability, T/C: 11.5%
Second compound 0.1 µM, first compound 3.16 µM
  viability, T/C: 13.7%
[3]
  viability, T/C: 87.3%
[4]
  viability, T/C: 53.2%
Second compound 0.316 µM, first compound 0.1 µM
  viability, T/C: 23.8%
Second compound 0.316 µM, first compound 0.316 µM
  viability, T/C: 14%
Second compound 0.316 µM, first compound 1 µM
  viability, T/C: 11.9%
Second compound 0.316 µM, first compound 3.16 µM
  viability, T/C: 11.9%
[5]
  viability, T/C: 76.6%
[6]
  viability, T/C: 37%
Second compound 1 µM, first compound 0.1 µM
  viability, T/C: 20.2%
Second compound 1 µM, first compound 0.316 µM
  viability, T/C: 13.4%
Second compound 1 µM, first compound 1 µM
  viability, T/C: 10.1%
Second compound 1 µM, first compound 3.16 µM
  viability, T/C: 8.68%
[7]
  viability, T/C: 59.4%
[8]
  viability, T/C: 30.6%
Second compound 3.16 µM, first compound 0.1 µM
  viability, T/C: 18.1%
Second compound 3.16 µM, first compound 0.316 µM
  viability, T/C: 11.7%
Second compound 3.16 µM, first compound 1 µM
  viability, T/C: 9.08%
Second compound 3.16 µM, first compound 3.16 µM
  viability, T/C: 9.24%
[9]
  viability, T/C: 46.9%
[10]
  viability, T/C: 26.4%
Second compound 10 µM, first compound 0.1 µM
  viability, T/C: 16.8%
Second compound 10 µM, first compound 0.316 µM
  viability, T/C: 13.6%
Second compound 10 µM, first compound 1 µM
  viability, T/C: 11.2%
Second compound 10 µM, first compound 3.16 µM
  viability, T/C: 9.36%
